# Literature values as cited in patent US20180008675A1, “USE OF URODILATING FOR PREPARING A MEDICAMENT FOR TREATMENT OF CARDIOVASCULAR, RENAL, PULMONARY, AND NEURONAL SYNDROMES WHILE AVOIDING A REBOUND” (CARDIORENTIS AG, priority 2010, published 2018).
# Legend:
# [1] = test system: patients with chronic congestive heart failure; conditions: 10-hour infusion, 15 ng/kg/min
# [2] = test system: patients with chronic congestive heart failure / acute decompensated heart failure
# dogs = dogs (Riegger et al., 1990)
substance,measurement,setting,value
urodilatin,central venous pressure (CVP),"[1]; NYHA III chronic congestive heart failure (Eisner et al., 1995)",increases slightly already after 5 hours of infusion
same,urine flow,"[1]; chronic congestive heart failure (Eisner et al., 1995)",loss of action after 8 hours of infusion
same,changes of the cardiac index (CI),"[2]; 15 and 30 ng/kg/min (Mitrovic et al., 2006)",significant increase
same,changes of the baseline in pulmonary capillary wedge pressure (PCWP),"[2]; 15 and 30 ng/kg/min, compared with the placebo group (Mitrovic et al., 2006)",significant reductions
same,"pulmonary capillary wedge pressure (PCWP), loss of effect during infusion","[2]; after 6 to 8 hours of infusion (Mitrovic et al., 2006, FIG. 2A)",slight increase of PCWP
same,"cardiac index (CI), loss of effect during infusion","[2]; after 6 to 8 hours of infusion (Mitrovic et al., 2006, FIG. 2C)",partial drop of CI
same,"symptoms, morbidity and mortality","[2]; all doses, acute decompensated heart failure (Mitrovic et al., 2005 and 2006)",significantly improved
same,"effect compared to other natriuretic peptides, such as ANP",dogs,better effect in dogs
